Patent US7638508B2, “Glucocorticosteroid compound having anti-inflammatory activity” (Glaxo Group Limited, priority 2003, dated 2009)

Biological target: T1, Progesterone Receptor (Homo sapiens, UniProt P06401)
T1 construct: The human breast cancer cell line T47D has been reported to upregulate an endogenous alkaline phosphatase in response to progestins; endogenous in cells; host or cells: T47D cells
T1 sequence (P06401 1-933): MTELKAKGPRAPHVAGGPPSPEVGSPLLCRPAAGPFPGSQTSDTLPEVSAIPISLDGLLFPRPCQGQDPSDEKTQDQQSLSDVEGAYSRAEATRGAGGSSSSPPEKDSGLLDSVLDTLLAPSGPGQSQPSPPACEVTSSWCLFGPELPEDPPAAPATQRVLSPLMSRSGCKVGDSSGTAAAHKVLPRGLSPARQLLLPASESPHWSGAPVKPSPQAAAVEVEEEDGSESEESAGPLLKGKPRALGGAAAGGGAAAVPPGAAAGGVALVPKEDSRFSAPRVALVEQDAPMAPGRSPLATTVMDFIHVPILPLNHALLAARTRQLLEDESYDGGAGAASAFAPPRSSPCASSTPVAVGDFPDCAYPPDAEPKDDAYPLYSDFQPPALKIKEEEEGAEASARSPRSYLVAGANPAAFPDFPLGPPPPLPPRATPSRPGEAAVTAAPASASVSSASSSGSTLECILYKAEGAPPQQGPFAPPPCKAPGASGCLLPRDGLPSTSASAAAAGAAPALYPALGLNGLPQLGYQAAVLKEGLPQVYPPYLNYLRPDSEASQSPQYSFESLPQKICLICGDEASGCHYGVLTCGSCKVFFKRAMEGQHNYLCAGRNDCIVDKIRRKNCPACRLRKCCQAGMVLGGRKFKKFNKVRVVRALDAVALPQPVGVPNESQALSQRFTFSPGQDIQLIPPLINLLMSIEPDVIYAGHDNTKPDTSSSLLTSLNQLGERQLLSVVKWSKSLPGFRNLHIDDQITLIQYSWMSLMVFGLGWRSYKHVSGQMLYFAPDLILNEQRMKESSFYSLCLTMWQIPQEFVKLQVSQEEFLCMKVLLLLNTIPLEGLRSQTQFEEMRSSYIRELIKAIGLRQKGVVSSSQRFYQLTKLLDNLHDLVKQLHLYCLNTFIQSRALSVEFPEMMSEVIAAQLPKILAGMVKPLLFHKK
Assay: Assay for Progesterone Receptor Activity: alkaline phosphatase upregulation in T47D cells
Format: cell-based
Conditions: 24 hours at 37° C.
Method: Assay for Progesterone Receptor Activity
The human breast cancer cell line T47D has been reported to upregulate an endogenous alkaline phosphatase in response to progestins (Di Lorenzo et al., Cancer Research (1991) 51, 4470-4475. T47D cells were seeded into 96 well plates at a density of 1×10^5 cells per well and grown overnight at 37° C. Steroids were dissolved in DMSO, added to the cells (final DMSO concentration 0.7%), and incubated for 24 hours at 37° C. The cells were then washed with PBS and lysed with RIPA buffer (1% IGEPAL, 0.5% Na deoxycholate, 0.1% SDS in phosphate buffered saline). Alkaline phosphatase activity was measured spectrophotometrically (405 nm) using p-nitrophenylphosphate (1.5 mg/ml) as a substrate dissolved in 1 M diethanolamine, 0.28M NaCl, 0.5 mM MgCl2. Dose response curves were constructed from which EC50 values were estimated.

Structure (SMILES)	EC50 [nM]
C[C@@H]1C[C@H]2[C@@H]3C[C@H](F)C4=CC(=O)C=C[C@]4(C)[C@@]3(F)[C@@H](O)C[C@]2(C)[C@@]1(OC(=O)C1CCCCC1)C(=O)OCC#N [Example 5, 17α-(Cyclohexylcarbonyl)oxy-6α,9α-difluoro-11β-hydroxy-16α-methyl-3-oxo-androsta-1,4-diene-17β-carboxylic Acid cyanomethyl Ester]	> 100
CC(C)c1nc(C(=O)O[C@]2(C(=O)OCC#N)[C@H](C)C[C@H]3[C@@H]4C[C@H](F)C5=CC(=O)C=C[C@]5(C)[C@@]4(F)[C@@H](O)C[C@@]32C)cs1 [Example 11, 6α,9α-Difluoro-11β-hydroxy-17α-(2-isopropyl-1,3-thiazole-4-carbonyl)oxy-16α-methyl-3-oxo-androsta-1,4-diene-17β-carboxylic Acid Cyanomethyl Ester]	> 100

Biological target: T2, glucocorticoid receptor (Homo sapiens, UniProt P04150)
T2 sequence (P04150 1-777): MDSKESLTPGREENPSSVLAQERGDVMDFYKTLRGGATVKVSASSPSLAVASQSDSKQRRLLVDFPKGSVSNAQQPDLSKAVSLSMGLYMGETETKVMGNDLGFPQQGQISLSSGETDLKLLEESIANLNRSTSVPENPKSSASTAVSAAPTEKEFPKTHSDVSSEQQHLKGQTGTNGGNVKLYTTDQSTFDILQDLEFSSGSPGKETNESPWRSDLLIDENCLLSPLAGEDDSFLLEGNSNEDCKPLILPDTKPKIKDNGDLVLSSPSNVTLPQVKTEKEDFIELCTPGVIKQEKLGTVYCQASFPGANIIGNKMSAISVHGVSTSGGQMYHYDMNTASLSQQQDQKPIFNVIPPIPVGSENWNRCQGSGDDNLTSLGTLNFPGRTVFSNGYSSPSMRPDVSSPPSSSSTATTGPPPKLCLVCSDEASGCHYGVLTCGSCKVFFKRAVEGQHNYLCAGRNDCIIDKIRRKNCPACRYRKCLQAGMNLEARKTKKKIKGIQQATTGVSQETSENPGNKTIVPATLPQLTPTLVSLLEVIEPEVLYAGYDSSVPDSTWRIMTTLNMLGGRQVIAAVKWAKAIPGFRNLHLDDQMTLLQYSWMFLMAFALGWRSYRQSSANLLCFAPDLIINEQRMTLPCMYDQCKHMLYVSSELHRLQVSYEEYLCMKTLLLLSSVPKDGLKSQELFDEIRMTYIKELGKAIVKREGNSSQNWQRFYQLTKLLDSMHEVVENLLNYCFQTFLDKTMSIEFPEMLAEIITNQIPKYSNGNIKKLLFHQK
Assay: MMTV-LTR renilla luciferase reporter assay in A549 cells (direct transactivation of gene expression)
Format: cell-based
Conditions: 6 hour at 37° C., read-out: maximal response relative to Dexamethasone (100%)
Method: Pharmacological activity may be assessed in functional in vitro assays of glucocorticoid agonist activity.
The functional assay based on that described by R. J. H. Austin et al., Eur Resp J. (2002), 20, 1386-1392 measures the ability of compounds to directly transactivate gene expression. A549 cells stably transfected with a reporter gene containing the glucocorticoid responsive region of the mouse mammary tumour virus long terminal repeat (MMTV-LTR) coupled to renilla luciferase were treated with test compounds at appropriate doses for 6 hour at 37° C. The amount of luciferase activity present within the cells is then determined by measuring the light emitted following incubation with a suitable substrate.

Structure (SMILES)	Emax [%]
CC1CC2C3CC(F)C4=CC(=O)C=CC4(C)C3(F)C(O)CC2(C)C1(OC(=O)C1C(C)(C)C1(C)C)C(=O)SCC#N (stereo not drawn) [Example 1, 6α,9α-Difluoro-11β-hydroxy-16α-methyl-3-oxo-17α-(2,2,3,3-tetramethycyclopropylcarbonyl)oxy-androsta-1,4-diene-17β-carbothioic Acid S-cyanomethyl Ester]	< 35
COc1c(C(=O)OC2(C(=O)SCC#N)C(C)CC3C4CC(F)C5=CC(=O)C=CC5(C)C4(F)C(O)CC32C)csc1Cl (stereo not drawn) [Example 3, 17α-(5-Chloro-4-methoxy-thiophene-3-carbonyl)oxy-6α,9α-difluoro-11β-hydroxy-16α-methyl-3-oxo-androsta-1,4-diene-17β-carbothioic Acid S-cyanomethyl Ester]	< 35
C[C@@H]1C[C@H]2[C@@H]3C[C@H](F)C4=CC(=O)C=C[C@]4(C)[C@@]3(F)[C@@H](O)C[C@]2(C)[C@@]1(OC(=O)C1CCCCC1)C(=O)OCC#N [Example 5, 17α-(Cyclohexylcarbonyl)oxy-6α,9α-difluoro-11β-hydroxy-16α-methyl-3-oxo-androsta-1,4-diene-17β-carboxylic Acid cyanomethyl Ester]	< 35
CC1CC2C3CC(F)C4=CC(=O)C=CC4(C)C3(F)C(O)CC2(C)C1(OC(=O)c1c(F)cccc1F)C(=O)OCC#N (stereo not drawn) [Example 6, 6α,9α-Difluoro-17α-(2,6-difluorobenzoyl)oxy-11β-hydroxy-16α-methyl-3-oxo-androsta-1,4-diene-17β-carboxylic Acid cyanomethyl Ester]	< 35
COc1ccc(C(=O)OC2(C(=O)OCC#N)C(C)CC3C4CC(F)C5=CC(=O)C=CC5(C)C4(F)C(O)CC32C)cc1 (stereo not drawn) [Example 7, 6α,9α-Difluoro-11β-hydroxy-17α-(4-methoxybenzoyl)oxy-16α-methyl-3-oxo-androsta-1,4-diene-17β-carboxylic Acid cyanomethyl Ester]	< 35
CC1CC2C3CC(F)C4=CC(=O)C=CC4(C)C3(F)C(O)CC2(C)C1(OC(=O)CC1CCCC1)C(=O)OCC#N (stereo not drawn) [Example 9, 17α-(Cyclopentylmethylcarbonyl)oxy-6α,9α-difluoro-11β-hydroxy-16α-methyl-3-oxo-androsta-1,4-diene-17β-carboxylic Acid Cyanomethyl Ester]	< 35
CC1CC2C3CC(F)C4=CC(=O)C=CC4(C)C3(F)C(O)CC2(C)C1(OC(=O)CC(C)(C)C)C(=O)OCC#N (stereo not drawn) [Example 10, 6α,9α-Difluoro-17α-(3,3-dimethylbutanoyl)oxy-11β-hydroxy-16α-methyl-3-oxo-androsta-1,4-diene-17β-carboxylic Acid Cyanomethyl Ester]	< 35
CC(C)c1nc(C(=O)O[C@]2(C(=O)OCC#N)[C@H](C)C[C@H]3[C@@H]4C[C@H](F)C5=CC(=O)C=C[C@]5(C)[C@@]4(F)[C@@H](O)C[C@@]32C)cs1 [Example 11, 6α,9α-Difluoro-11β-hydroxy-17α-(2-isopropyl-1,3-thiazole-4-carbonyl)oxy-16α-methyl-3-oxo-androsta-1,4-diene-17β-carboxylic Acid Cyanomethyl Ester]	< 35
CC1CC2C3CC(F)C4=CC(=O)C=CC4(C)C3(F)C(O)CC2(C)C1(OC(=O)c1ccc2ccccc2n1)C(=O)OCC#N (stereo not drawn) [Example 12, 6α,9α-Difluoro-11β-hydroxy-16α-methyl-3-oxo-17α-(quinoline-2-carbonyl)oxy-androsta-1,4-diene-17β-carboxylic Acid Cyanomethyl Ester]	< 35
CC1CC2C3CC(F)C4=CC(=O)C=CC4(C)C3(F)C(O)CC2(C)C1(OC(=O)c1ccc(C(F)(F)F)o1)C(=O)OCC#N (stereo not drawn) [Example 13, 6α,9α-Difluoro-11β-hydroxy-16α-methyl-3-oxo-17α-(5-trifluoromethyl-furan-2-carbonyl)oxy-androsta-1,4-diene-17β-carboxylic Acid Cyanomethyl Ester]	< 35
CC1CC2C3CC(F)C4=CC(=O)C=CC4(C)C3(F)C(O)CC2(C)C1(OC(=O)c1ccc(S(C)(=O)=O)s1)C(=O)OCC#N (stereo not drawn) [Example 14, 6α,9α-Difluoro-11β-hydroxy-16α-methyl-17α-(5-methylsulphonyl-thiophene-2-carbonyl)oxy-3-oxo-androsta-1,4-diene-17β-carboxylic Acid Cyanomethyl Ester]	< 35
CCc1cc(C(=O)OC2(C(=O)OCC#N)C(C)CC3C4CC(F)C5=CC(=O)C=CC5(C)C4(F)C(O)CC32C)no1 (stereo not drawn) [Example 16, 6α,9α-Difluoro-17α-(5-ethyl-isoxazole-3-carbonyl)oxy-11β-hydroxy-16α-methyl-3-oxo-androsta-1,4-diene-17β-carboxylic Acid Cyanomethyl Ester]	< 35
CC1CC2C3CCC4=CC(=O)C=CC4(C)C3(F)C(O)CC2(C)C1(OC(=O)C1C(C)(C)C1(C)C)C(=O)OCC#N (stereo not drawn) [Example 17, 9α-Fluoro-11β-hydroxy-16β-methyl-3-oxo-17α-(2,2,3,3-tetramethylcyclopropylcarbonyl)oxy-androsta-1,4-diene-17 b-carboxylic Acid cyanomethyl ester]	< 35
COc1c(C(=O)OC2(C(=O)OCC#N)C(C)CC3C4CC(F)C5=CC(=O)C=CC5(C)C4(F)C(O)CC32C)csc1Cl (stereo not drawn) [Example 19, 17α-(5-Chloro-4-methoxy-thiophene-3-carbonyl)oxy-6α,9α-difluoro-11β-hydroxy-16α-methyl-3-oxo-androsta-1,4-diene-17β-carboxylic Acid Cyanomethyl Ester]	< 35
CC1CC2C3CC(F)C4=CC(=O)C=CC4(C)C3(F)C(O)CC2(C)C1(OC(=O)C1C(C)(C)C1(Cl)Cl)C(=O)SCC#N (stereo not drawn) [Example 21, 17α-(22-Dichloro-3,3-dimethylclopropylcarbonyl)oxy-6α,9α-difluoro-11β-hydroxy-16α-methyl-3-oxo-androsta-1,4-diene-17β-carbothioic acid S-cyanomethyl Ester]	< 35
CC1CC2C3CC(F)C4=CC(=O)C=CC4(C)C3(F)C(O)CC2(C)C1(OC(=O)C1CCCCC1)C(=O)SCC#N (stereo not drawn) [Example 22, 17α-(Cyclohexylcarbonyl)oxy-6α,9α-difluoro-1,1-hydroxy-16α-methyl-3-oxo-androsta-1,4-diene-17β-carbothioic Acid S-cyanomethyl Ester]	< 35
